Laboratory results taken from ChEMBL document CHEMBL1201862, “PubChem BioAssay data set” (2004).
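Growth conditions: 96-well plates. Treatment: test compound, 48 hours, 5 concentrations. Analysis: linear interpolation between bracketing concentrations; unreached endpoints set to highest concentration. At the GI50, growth is halved.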 The source made the active and inactive calls. Cut-off read from the data, not from the text of the source: active = GI50 up to about 1.1 µM and inactive = higher.

Experiments:
Experiment in all cases: NCI anticancer screen, dose series, 48 h
[1] = test system: SK-OV-3
[2] = test system: U-251
[3] = test system: SNB-75
[4] = test system: OVCAR-4
[5] = test system: SF-539
[6] = test system: UACC-257
[7] = test system: UO-31
[8] = test system: M14
[9] = test system: SF-295
[10] = test system: HOP-62
[11] = test system: IGROV-1
[12] = test system: 786-0
[13] = test system: HOP-92
[14] = test system: NCI-H23
[15] = test system: SK-MEL-2
[16] = test system: HL-60

Row | Structure (SMILES) | GI50 [1] | GI50 [2] | GI50 [3] | GI50 [4] | GI50 [5] | GI50 [6] | GI50 [7] | GI50 [8] | GI50 [9] | GI50 [10] | GI50 [11] | GI50 [12] | GI50 [13] | GI50 [14] | GI50 [15] | GI50 [16]
1 | Cc1ccc(NC(=O)C2C(=O)N(c3ccc(C)cc3)C(=O)/C2=N\NC(N)=S)cc1 (stereo not given) | > 100 µM (inactive) | > 100 µM (inactive) | > 100 µM (inactive) | > 100 µM (inactive) | > 100 µM (inactive) | > 100 µM (inactive) | > 100 µM (inactive) | > 100 µM (inactive) | > 100 µM (inactive) | > 100 µM (inactive) | > 100 µM (inactive) | > 100 µM (inactive) | > 100 µM (inactive) | > 100 µM (inactive) | > 100 µM (inactive) | –
2 | O=C1CCCCCCC2=C1C(Sc1ccccc1)CC2 (stereo not given) | 83 µM (inactive) | 37.1 µM (inactive) | 21.1 µM (inactive) | 63.2 µM (inactive) | – | 43.2 µM (inactive) | 18.8 µM (inactive) | 45.9 µM (inactive) | 45 µM (inactive) | > 100 µM (inactive) | – | 17.7 µM (inactive) | – | 33.9 µM (inactive) | – | 12.8 µM (inactive)
3 | c1cnc2c(c1)-n1cccc1C1(CCOCC1)NN2 | > 100 µM (inactive) | > 100 µM (inactive) | > 100 µM (inactive) | > 100 µM (inactive) | > 100 µM (inactive) | – | > 100 µM (inactive) | > 100 µM (inactive) | > 100 µM (inactive) | – | > 100 µM (inactive) | > 100 µM (inactive) | > 100 µM (inactive) | > 100 µM (inactive) | > 100 µM (inactive) | > 100 µM (inactive)
4 | O=c1n(-c2ccccc2)c(=O)n2n1C1C=CC2C2C(C1)C2(Cl)Cl (stereo not given) | > 100 µM (inactive) | > 100 µM (inactive) | > 100 µM (inactive) | > 100 µM (inactive) | > 100 µM (inactive) | > 100 µM (inactive) | > 100 µM (inactive) | > 100 µM (inactive) | > 100 µM (inactive) | > 100 µM (inactive) | > 100 µM (inactive) | > 100 µM (inactive) | – | – | > 100 µM (inactive) | > 100 µM (inactive)
5 | O=C(/C=C/c1ccccc1)Oc1cccc2cccnc12 | 41.1 µM (inactive) | 4.71 µM (inactive) | 14.3 µM (inactive) | 6.87 µM (inactive) | 3.93 µM (inactive) | 2.88 µM (inactive) | 6.35 µM (inactive) | 4.11 µM (inactive) | 8.28 µM (inactive) | 21.2 µM (inactive) | 11.2 µM (inactive) | > 44.4 µM (inactive) | 17.5 µM (inactive) | 3.72 µM (inactive) | – | 3.01 µM (inactive)
6 | C#C[C@]1(O)CCC2C3CCc4cc(Oc5nc(F)nc(-n6c(C)nc7cc8ccccc8cc76)n5)ccc4C3CCC21C (stereo not given in full) | 62.1 µM (inactive) | 36.2 µM (inactive) | 35.6 µM (inactive) | – | 31.6 µM (inactive) | 86.5 µM (inactive) | 75.2 µM (inactive) | 43.8 µM (inactive) | 33.8 µM (inactive) | 35.7 µM (inactive) | 54.3 µM (inactive) | 57 µM (inactive) | 16.3 µM (inactive) | 59.4 µM (inactive) | 45.3 µM (inactive) | 31.1 µM (inactive)
7 | O=c1c2cc(Br)ccc2[nH]c(=S)n1-c1ccccc1 | > 100 µM (inactive) | > 100 µM (inactive) | > 100 µM (inactive) | > 100 µM (inactive) | > 100 µM (inactive) | > 100 µM (inactive) | > 100 µM (inactive) | > 100 µM (inactive) | > 100 µM (inactive) | > 100 µM (inactive) | > 100 µM (inactive) | > 100 µM (inactive) | > 100 µM (inactive) | > 100 µM (inactive) | > 100 µM (inactive) | –
8 | C/C(=C\C(C[C@](C)(O)C(O)CCC#C[Si](C)(C)C)S(=O)(=O)c1ccccc1)CC/C=C/CO[Si](C)(C)C(C)(C)C (stereo not given in full) | 22.6 µM (inactive) | 13.4 µM (inactive) | – | 13.8 µM (inactive) | 20 µM (inactive) | 17.3 µM (inactive) | 21.9 µM (inactive) | 17.9 µM (inactive) | 16.5 µM (inactive) | 21.4 µM (inactive) | 20.8 µM (inactive) | 17 µM (inactive) | 11.9 µM (inactive) | 18.2 µM (inactive) | 18 µM (inactive) | 14.9 µM (inactive)
9 | CN1C(=O)CC2(C)c3cc(O)cc(Br)c3N(C)C12 (stereo not given) | > 100 µM (inactive) | > 100 µM (inactive) | 30.8 µM (inactive) | > 10 µM (inactive) | > 100 µM (inactive) | > 100 µM (inactive) | 57.7 µM (inactive) | > 100 µM (inactive) | > 100 µM (inactive) | > 100 µM (inactive) | > 100 µM (inactive) | > 100 µM (inactive) | > 100 µM (inactive) | > 100 µM (inactive) | > 100 µM (inactive) | –
10 | O=C(CC1C(=O)Nc2ccccc2S1(=O)=O)Nc1cc(Cl)ccc1Cl (stereo not given) | – | 10 µM (inactive) | 14.6 µM (inactive) | 16.8 µM (inactive) | 2.4 µM (inactive) | 35.2 µM (inactive) | 15.6 µM (inactive) | 14.3 µM (inactive) | 17.5 µM (inactive) | – | 13.1 µM (inactive) | 8.55 µM (inactive) | 14.2 µM (inactive) | 17.9 µM (inactive) | 14.9 µM (inactive) | 11.8 µM (inactive)
11 | CC(C)(C)N/N=C(\C(=O)Nc1cccc(Cl)c1)C1C(=O)Nc2ccccc2[S+]1[O-] (stereo not given) | > 100 µM (inactive) | – | > 100 µM (inactive) | > 100 µM (inactive) | > 100 µM (inactive) | > 100 µM (inactive) | > 100 µM (inactive) | > 100 µM (inactive) | > 100 µM (inactive) | > 100 µM (inactive) | > 100 µM (inactive) | > 100 µM (inactive) | 74.8 µM (inactive) | > 100 µM (inactive) | > 100 µM (inactive) | > 100 µM (inactive)
12 | CC1=Nn2c(nnc2-c2ccc(Cl)cc2)NC(C)(C)C1 | > 100 µM (inactive) | > 100 µM (inactive) | – | > 100 µM (inactive) | > 100 µM (inactive) | > 100 µM (inactive) | > 100 µM (inactive) | > 100 µM (inactive) | > 100 µM (inactive) | > 100 µM (inactive) | > 100 µM (inactive) | > 100 µM (inactive) | > 100 µM (inactive) | > 100 µM (inactive) | > 100 µM (inactive) | > 100 µM (inactive)
13 | CN(CC(=O)O)S(=O)(=O)c1ccc2ccccc2c1 | > 100 µM (inactive) | > 100 µM (inactive) | > 100 µM (inactive) | > 100 µM (inactive) | > 100 µM (inactive) | > 100 µM (inactive) | > 100 µM (inactive) | > 100 µM (inactive) | > 100 µM (inactive) | – | > 100 µM (inactive) | > 100 µM (inactive) | > 100 µM (inactive) | > 100 µM (inactive) | > 100 µM (inactive) | > 100 µM (inactive)
14 | O=c1/c(=C/c2ccccc2[N+](=O)[O-])sc2nnc(-c3cccnc3)n12 | – | – | > 100 µM (inactive) | > 100 µM (inactive) | > 100 µM (inactive) | > 100 µM (inactive) | > 100 µM (inactive) | > 100 µM (inactive) | > 100 µM (inactive) | > 100 µM (inactive) | > 100 µM (inactive) | > 100 µM (inactive) | > 100 µM (inactive) | > 100 µM (inactive) | > 100 µM (inactive) | > 100 µM (inactive)
15 | C=C(C)CC(C)(c1cc2ccccc2n1C)N1CCOCC1 (stereo not given) | > 100 µM (inactive) | – | > 100 µM (inactive) | > 100 µM (inactive) | > 100 µM (inactive) | 95.1 µM (inactive) | 22.9 µM (inactive) | 70 µM (inactive) | > 100 µM (inactive) | > 100 µM (inactive) | 75.7 µM (inactive) | > 100 µM (inactive) | 14.8 µM (inactive) | 55.1 µM (inactive) | > 100 µM (inactive) | 57 µM (inactive)
16 | COc1ccc(-c2c(N)[n+]([O-])c3cc(C)c(C)cc3[n+]2[O-])cc1OC | > 100 µM (inactive) | 67.3 µM (inactive) | 36.4 µM (inactive) | > 100 µM (inactive) | 33.9 µM (inactive) | 41.5 µM (inactive) | 54 µM (inactive) | 55.6 µM (inactive) | > 100 µM (inactive) | > 100 µM (inactive) | > 100 µM (inactive) | > 100 µM (inactive) | – | 34 µM (inactive) | 66.8 µM (inactive) | 46.3 µM (inactive)
17 | CC(C)(C)c1cc(C(O)(C(F)(F)F)C(F)(F)F)c2c(c1)C(C(F)(F)F)(C(F)(F)F)OC(C)(C(C)(C)C)N2 (stereo not given) | 2.25 µM (inactive) | 2.69 µM (inactive) | 2 µM (inactive) | 4.62 µM (inactive) | 3.55 µM (inactive) | 5.19 µM (inactive) | 2.97 µM (inactive) | 0.653 µM (active) | 4.73 µM (inactive) | – | 4.78 µM (inactive) | 3.34 µM (inactive) | < 0.01 µM (active) | 2 µM (inactive) | 4.72 µM (inactive) | –
18 | COC(=O)C12CC(C3CC31)C1CC12 (stereo not given) | > 100 µM (inactive) | > 100 µM (inactive) | – | > 100 µM (inactive) | – | > 100 µM (inactive) | > 100 µM (inactive) | > 100 µM (inactive) | > 100 µM (inactive) | > 100 µM (inactive) | > 100 µM (inactive) | > 100 µM (inactive) | 59 µM (inactive) | > 100 µM (inactive) | – | > 100 µM (inactive)
